Source: patent US11807625B2, “Capsid inhibitors for the prevention of HIV” (Gilead Sciences, Inc., priority 2019, dated 2023)

Assay: PK of compound of Formula (Ia) after single subcutaneous dose of solution formulations in Wistar Han rats
Type: in vivo
Details: male, Wistar Han, rat, plasma, sc, 50 mg/kg, SC 50 mg/kg
Experimental: Formulations containing the compound of Formula (Ia), or a pharmaceutically acceptable salt thereof, were prepared as solutions and optionally administered subcutaneously or intramuscularly to rats, rabbits, and/or dogs.
(§1) A solution of about 400 mg/mL of the compound of Formula (Ia) having 19.14 w/w % water, 40.66 w/w % PEG 300, 35.20 w/w % of a sodium salt of a compound of Formula (Ia), and 5.00% ethanol was prepared. The solution was administered subcutaneously to male Wistar Han rats at a dose level of about 50 mg/kg and dose volume of 0.125 mL/kg and the pharmacokinetic (PK) profile was determined.
as §1, with “500” for “400”, “16.64” for “19.14”, “35.36” for “40.66”, “43.00” for “35.20”, “0.1” for “0.125”
(§2) A solution of about 400 mg/mL of the compound of Formula (Ia) having 17.00 w/w % water, 36.40 w/w % PEG 300, 35.20 w/w % of a sodium salt of a compound of Formula (Ia), 5.00 w/w % ethanol, and 6.40 w/w % poloxamer 188 was prepared. The solution was administered subcutaneously to male beagle dogs at a dose level of about 12 mg/kg and male Wistar Han rats at a dose level of about 50 mg/kg. The pharmacokinetic profiles were determined, and the results for dogs are summarized in Table and Table, while the results for rats are summarized in Table and Table below.
as §2, with “500” for “400”, “14.06” for “17.00”, “30.12” for “36.40”
A solution of about 300 mg/mL of the compound of Formula (Ia) having 23.33 w/w % water, 48.99 w/w % PEG 300, 26.47 w/w % of a sodium salt of a compound of Formula (Ia), and 1.21 w/w % poloxamer 188 was prepared. The solution was administered subcutaneously to male beagle dogs at a dose level of about 6 mg/kg and male Wistar Han rats at a dose level of about 50 mg/kg. The pharmacokinetic profiles were determined, and the results for dogs are summarized in Table and Table, while the results for rats are summarized in Table and Table below.
as §2, with “18.80” for “17.00”, “40.25” for “36.40”, “34.38” for “35.20”, “1.57” for “6.40”
as §2, with “500” for “400”, “16.29” for “17.00”, “34.88” for “36.40”, “41.92” for “35.20”, “1.91” for “6.40”
A solution of about 400 mg/mL of the compound of Formula (Ia) having 20.90 w/w % water, 44.72 w/w % PEG 300, and 34.38 w/w % of a sodium salt of a compound of Formula (Ia) was prepared. […]

[1] = individual rats, solution T, 400 mg/mL
[2] = individual rats, solution U, 500 mg/mL
[3] = individual rats, solution V, 300 mg/mL
[4] = mean, n = 3 rats, solution R, 400 mg/mL
[5] = mean, n = 3 rats, solution S, 500 mg/mL
[6] = mean, n = 3 rats, solution V, 300 mg/mL
[7] = mean, n = 5 rats, solution T, 400 mg/mL
[8] = mean, n = 5 rats, solution U, 500 mg/mL
[9] = individual rats, solution R, 400 mg/mL
[10] = individual rats, solution S, 500 mg/mL

concentration at 8 h [1]: 294 nM
concentration at 8 h [2]: 176 nM
concentration at 8 h [3]: 170 nM
concentration at 8 h [4]: 112 nM
concentration at 8 h [5]: 100 nM
concentration at 8 h [6]: 155 nM
concentration at 8 h [7]: 211 nM
concentration at 8 h [8]: 142 nM
concentration at 24 h [9]: 167 nM
concentration at 24 h [10]: 111 nM
concentration at 24 h [2]: 300 nM
concentration at 24 h [3]: 222 nM
concentration at 24 h [4]: 162 nM
concentration at 24 h [5]: 127 nM
concentration at 24 h [6]: 193 nM
concentration at 24 h [7]: 339 nM
concentration at 24 h [8]: 224 nM
concentration at 48 h [9]: 184 nM
concentration at 48 h [10]: 92.6 nM
concentration at 48 h [3]: 265 nM
concentration at 48 h [4]: 151 nM
concentration at 48 h [5]: 123 nM
concentration at 48 h [6]: 197 nM
concentration at 48 h [7]: 307 nM
concentration at 48 h [8]: 211 nM
concentration at 72 h [9]: 168 nM
concentration at 72 h [10]: 95.8 nM
concentration at 72 h [1]: 353 nM
concentration at 72 h [3]: 187 nM
concentration at 72 h [4]: 148 nM
concentration at 72 h [5]: 127 nM
concentration at 72 h [6]: 148 nM
concentration at 72 h [7]: 247 nM
concentration at 72 h [8]: 197 nM
concentration at 96 h [9]: 181 nM
concentration at 96 h [10]: 105 nM
concentration at 96 h [2]: 230 nM
concentration at 96 h [3]: 164 nM
concentration at 96 h [4]: 152 nM
concentration at 96 h [5]: 120 nM
concentration at 96 h [6]: 136 nM
concentration at 96 h [7]: 240 nM
concentration at 96 h [8]: 167 nM
concentration at 168 h [9]: 191 nM
concentration at 168 h [10]: 123 nM
concentration at 168 h [3]: 100 nM
concentration at 168 h [4]: 160 nM
concentration at 168 h [5]: 109 nM
concentration at 168 h [6]: 104 nM
concentration at 168 h [7]: 173 nM
concentration at 168 h [8]: 154 nM
concentration at 336 h [9]: 251 nM
concentration at 336 h [3]: 194 nM
concentration at 336 h [4]: 261 nM
concentration at 336 h [5]: 183 nM
concentration at 336 h [6]: 201 nM
concentration at 336 h [7]: 254 nM
concentration at 336 h [8]: 244 nM
concentration at 504 h [9]: 348 nM
concentration at 504 h [10]: 415 nM
concentration at 504 h [3]: 241 nM
concentration at 504 h [4]: 353 nM
concentration at 504 h [5]: 287 nM
concentration at 504 h [6]: 265 nM
concentration at 504 h [7]: 301 nM
concentration at 504 h [8]: 303 nM
concentration at 672 h [9]: 290 nM
concentration at 672 h [10]: 407 nM
concentration at 672 h [3]: 274 nM
SMILES: CC(C)(C#Cc1ccc(-c2ccc(Cl)c3c(NS(C)(=O)=O)nn(CC(F)(F)F)c23)c([C@H](Cc2cc(F)cc(F)c2)NC(=O)Cn2nc(C(F)(F)F)c3c2C(F)(F)[C@@H]2C[C@H]32)n1)S(C)(=O)=O [compound of Formula (Ia)]
